From PMC6943527, “Are the Hydantoin-1,3,5-triazine 5-HT6R Ligands a Hope to a Find New Procognitive and Anti-Obesity Drug? Considerations Based on Primary In Vivo Assays and ADME-Tox Profile In Vitro” (Molecules, 2019)

Experiments:
5-HT7 = target: 5-HT7; design: method as in PMID 30282913; details: radioligand binding, average of at least two independent experiments; read-out: Ki 5-HT7 [3H]-5-CT; cited from earlier work
[1] = Metabolic stability and metabolic pathways in human liver microsomes
Method: The pharmacokinetic parameters of compounds were estimated by using human liver microsomes (HLMs) (Sigma-Aldrich, St. Louis, MO, USA). The t1/2 values and intrinsic clearances (CLint) were calculated with IS by using the protocols and formulas proposed by Obach [38]. […] VL was used as the reference unstable drug.

5-HT1A = target: 5-HT1A; design: method as in PMID 30282913; details: radioligand binding, average of at least two independent experiments; read-out: Ki 5-HT1A [3H]-8-OH-DPAT; cited from earlier work
[2] = Parallel artificial membrane permeability assay (PAMPA)
5-HT6 = target: 5-HT6; design: method as in PMID 30282913; details: radioligand binding, average of at least two independent experiments; read-out: Ki 5-HT6 [3H]-LSD; cited from earlier work
[3] = Hepatotoxicity assay, HepG2 cell viability; type: cell-based; details: human, HepG2 hepatoma cells, 100 µM, read-out: HepG2 cell viability, % of the control
Method: The cell-based assays were used to investigate safety of the 5-HT6R ligands. […] During the same study, no effect for KMP-10 was observed. Additional safety tests with the hepatoma HepG2 cell line were performed here to estimate the compounds’ hepatotoxicity. A slight antiproliferative effect was observed only for DJ-18 at 100 µM, where the cell viability was decreased to up to ~83% of the control (Figure 9a).
Hepatotoxicity was estimated using the hepatoma HepG2 (ATCC® HB-8065^TM) cell line according to previously described protocols. The CellTiter 96® AQueous Non-Radioactive Cell Proliferation Assay was obtained from Promega (Madison, WI, USA). The compounds were investigated in quadruplicate at four concentrations (0.1–100 µM) for 72h. The antiproliferative drug DX was used as a positive control at a dose of 1 µM.

[4] = tested on: human embryonic kidney (HEK)-293 cells; design: method as in PMID 30282913; details: highest concentration 100 µM; cited from earlier work
D2 = target: D2; design: method as in PMID 30282913; details: radioligand binding, average of at least two independent experiments; read-out: Ki D2 [3H]-Raclopride; cited from earlier work
[5] = design: method as in PMID 29297106; details: earlier studies; cited from earlier work
CYP3A4 = target: T1, CYP3A4 (Homo sapiens, UniProt P08684); design: method as in PMID 28212021; details: cited from earlier work
T1 construct: purchased Promega (Madison, WI, USA)

[6] = cited from earlier work
CYP2D6 = target: T2, CYP2D6 (Homo sapiens, UniProt P10635); design: method as in PMID 28212021; details: cited from earlier work
T2 construct: purchased Promega (Madison, WI, USA)
T2 sequence (P10635 whole entry): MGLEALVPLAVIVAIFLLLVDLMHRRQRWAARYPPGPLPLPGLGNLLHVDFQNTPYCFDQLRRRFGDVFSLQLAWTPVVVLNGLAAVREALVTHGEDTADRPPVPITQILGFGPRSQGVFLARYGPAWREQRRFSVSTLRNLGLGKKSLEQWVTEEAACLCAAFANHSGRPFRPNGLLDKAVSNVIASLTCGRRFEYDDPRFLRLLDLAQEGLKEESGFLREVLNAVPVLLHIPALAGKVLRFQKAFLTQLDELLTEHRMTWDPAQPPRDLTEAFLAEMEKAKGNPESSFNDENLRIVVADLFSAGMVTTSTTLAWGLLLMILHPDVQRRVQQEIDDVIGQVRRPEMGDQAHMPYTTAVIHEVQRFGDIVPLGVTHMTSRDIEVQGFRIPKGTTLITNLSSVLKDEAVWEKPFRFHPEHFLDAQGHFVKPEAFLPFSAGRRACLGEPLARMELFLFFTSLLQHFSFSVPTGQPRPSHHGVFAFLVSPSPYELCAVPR

T1 sequence (P08684 whole entry): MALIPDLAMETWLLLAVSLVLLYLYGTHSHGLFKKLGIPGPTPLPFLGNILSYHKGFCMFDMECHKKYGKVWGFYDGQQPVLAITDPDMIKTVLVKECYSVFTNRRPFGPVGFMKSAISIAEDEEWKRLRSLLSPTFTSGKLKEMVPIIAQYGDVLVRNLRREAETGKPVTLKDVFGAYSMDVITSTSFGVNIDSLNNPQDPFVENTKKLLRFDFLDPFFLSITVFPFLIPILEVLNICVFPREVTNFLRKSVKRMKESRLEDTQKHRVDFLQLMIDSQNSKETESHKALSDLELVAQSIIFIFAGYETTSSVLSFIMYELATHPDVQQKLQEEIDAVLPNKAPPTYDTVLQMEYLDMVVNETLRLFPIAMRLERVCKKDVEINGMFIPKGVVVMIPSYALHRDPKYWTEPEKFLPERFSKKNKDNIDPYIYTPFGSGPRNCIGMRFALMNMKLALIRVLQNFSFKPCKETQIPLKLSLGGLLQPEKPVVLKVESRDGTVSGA

CN1CCN(c2nc(N)nc(CN3C(=O)N(Cc4ccc(Cl)cc4)C(C)(C)C3=O)n2)CC1 [DJ-18]
Ki (5-HT7): 3.71 µM
Metabolic Pathway, metabolite M1 ([1]; HLMs, 120 min incubation): demethylation
Metabolic Pathway, metabolite M2 ([1]; HLMs, 120 min incubation): hydroxylation
Metabolic Pathway, metabolite M3 ([1]; HLMs, 120 min incubation): demethylation and hydroxylation
Metabolic Pathway, metabolite M4 ([1]; HLMs, 120 min incubation): hydroxylation
Intrinsic Clearance CLint ([1]; HLMs, reactions terminated at 5, 15, 30 and 45 min): 4.32 mL/min/kg
t1/2, fold longer than verapamil ([1]; HLMs, vs unstable reference verapamil): ~ 6 fold
half-life ([1]; human, liver microsomes, Half-Life t1/2, HLMs, reactions terminated at 5, 15, 30 and 45 min): 3.12 h
Ki (5-HT1A): 23.3 µM
Papp at 5 h, 200 µM ([2]; PAMPA, pH 7.4): 24.9 ± 0.45 ×10⁻⁶ cm/s
PAMPA ability to penetrate the artificial membrane, fold stronger than caffeine ([2]; vs high-permeable reference caffeine): ~ 1.65
Ki (5-HT6): 0.127 µM
viability at 72 h, 100 µM [3]: ~83%
HEK-293 cells viability [4]: statistically significant slight decrease
Ki (D2): 4.1 µM

Fc1ccc2c(CCNCc3cccc(OCC(F)(F)C(F)F)c3)c[nH]c2c1 [Idalopirdine]
Amount of visceral fat [5]: significantly reduced
Elevated glucose levels [5]: compensated for elevated glucose levels

CCn1cc(C(=O)O)c(=O)c2cc(F)c(N3CCNCC3)cc21 [Norfloxacin, norfloxacin, reference compound]
PAMPA Pe ± SD ([2]; 200 µM in PBS pH 7.4, 5 h, room temperature, triplicate): 0.56 ± 0.13 10^−6 cm/s

COc1ccc2c(c1)c(CN1CCN(C)CC1)cn2S(=O)(=O)c1ccccc1Br.CS(=O)(=O)O.CS(=O)(=O)O.O [SUVN-502, 1-[(2-Bromophenyl)sulfonyl]-5-methoxy-3-[(4-methyl-1-piperazinyl)methyl]-1H-indole Dimesylate Monohydrate]
CYP3A4 inhibition (CYP3A4): rather strong inhibitor
BBB-penetration ([6]; after oral administration): good BBB (blood brain barrier)-penetration
t1/2 in vivo ([6]; pharmacokinetics in vivo): 0.95 h
CYP2D6 inhibition (CYP2D6): weaker inhibitor
